# Test system: PBMC of healthy adult blood donors from Colombo, Sri Lanka
# Test: Ex vivo IFNγ ELISPOT, HLA-matched PBMC of Sri Lankan blood donors
# Type: cell-based, human
# Set-up: Total Response per epitope: unit not given here
# Conditions: for # donors responded: number of donors responding to the epitope
# [1] = restricting HLA allele and serotype as given
# [2] = total over responding donors, restricting HLA allele and serotype as given
# [3] = HLA allele, supertype and serotype
# [4] = summed IFNγ ELISPOT response per epitope, HLA allele and serotype as given
Structure (SMILES),# donors responded [1],Total Response per epitope [2],also measured
CC[C@H](C)[C@H](NC(=O)[C@H](CO)NC(=O)[C@H](CCCCN)NC(=O)[C@H](CCCNC(=N)N)NC(=O)CNC(=O)[C@H](CO)NC(=O)[C@H](C)NC(=O)[C@@H](N)Cc1ccccc1)C(=O)N[C@H](C(=O)N[C@@H](CC(C)C)C(=O)O)[C@@H](C)O,1,26.7,–
CC[C@H](C)[C@H](NC(=O)[C@H](C)NC(=O)CNC(=O)[C@@H](N)Cc1ccccc1)C(=O)N[C@@H](Cc1ccc(O)cc1)C(=O)NCC(=O)N[C@@H](C)C(=O)N[C@@H](C)C(=O)N[C@@H](Cc1ccccc1)C(=O)O,3,798.3,–
CC[C@H](C)[C@H](NC(=O)[C@@H]1CCCN1C(=O)[C@H](C)NC(=O)[C@H](CC(N)=O)NC(=O)[C@H](CO)NC(=O)[C@H](CCC(N)=O)NC(=O)[C@@H]1CCCN1C(=O)[C@@H](N)Cc1ccccc1)C(=O)N[C@@H](CCSC)C(=O)N[C@@H](CC(=O)O)C(=O)O,4,716.7,–
CC(C)C[C@H](NC(=O)[C@H](CO)NC(=O)[C@H](CC(N)=O)NC(=O)[C@H](CCC(=O)O)NC(=O)[C@H](CCCNC(=N)N)NC(=O)[C@H](CO)NC(=O)[C@@H](N)Cc1ccccc1)C(=O)N[C@@H](CO)C(=O)NCC(=O)N[C@H](C(=O)O)C(C)C,1,101.7,–
CC[C@H](C)[C@H](NC(=O)[C@H](C)NC(=O)[C@H](C)NC(=O)[C@H](CCSC)NC(=O)[C@@H](NC(=O)[C@@H](NC(=O)[C@@H](N)Cc1ccccc1)[C@@H](C)O)[C@@H](C)CC)C(=O)N[C@@H](CC(C)C)C(=O)N[C@@H](C)C(=O)N[C@@H](Cc1ccc(O)cc1)C(=O)O,2,675.0,–
CC[C@H](C)[C@H](NC(=O)[C@H](C)NC(=O)[C@H](CC(C)C)NC(=O)[C@H](CS)NC(=O)[C@H](CC(C)C)NC(=O)[C@@H](NC(=O)CNC(=O)[C@H](CCSC)NC(=O)[C@@H](NC(=O)[C@@H](N)Cc1ccccc1)[C@@H](C)O)C(C)C)C(=O)O,1,58.3,–
CSCC[C@H](NC(=O)[C@@H](NC(=O)[C@@H](N)Cc1ccccc1)[C@@H](C)O)C(=O)N[C@@H](CCCNC(=N)N)C(=O)N[C@@H](Cc1c[nH]cn1)C(=O)N[C@@H](CCCCN)C(=O)N[C@@H](CCCCN)C(=O)N[C@@H](C)C(=O)N[C@H](C(=O)N[C@@H](Cc1ccc(O)cc1)C(=O)O)[C@@H](C)O,4,1723.3,"T cell response [SFC] (per epitope, ex vivo IFNγ SFC/10^6 PBMC): 1723 SFC; # of responders (responding donors, HLA allele(s)): 4"
CC[C@H](C)[C@H](NC(=O)[C@@H]1CCCN1C(=O)[C@H](CCC(=O)O)NC(=O)[C@H](CCC(=O)O)NC(=O)[C@H](Cc1c[nH]cn1)NC(=O)CNC(=O)[C@@H]1CCCN1C(=O)CN)C(=O)N1CCC[C@H]1C(=O)N[C@@H](CCSC)C(=O)O,3,235.0,–
CC(C)C[C@H](NC(=O)[C@H](CCC(=O)O)NC(=O)[C@H](CC(C)C)NC(=O)[C@H](CCCCN)NC(=O)CNC(=O)[C@H](CC(C)C)NC(=O)[C@H](Cc1c[nH]cn1)NC(=O)[C@H](Cc1c[nH]c2ccccc12)NC(=O)[C@@H]1CCCN1C(=O)CN)C(=O)O,2,495.0,–
CSCC[C@H](NC(=O)[C@H](CCC(=O)O)NC(=O)[C@H](CC(C)C)NC(=O)[C@H](CCCCN)NC(=O)CNC(=O)[C@H](CC(C)C)NC(=O)[C@H](Cc1c[nH]cn1)NC(=O)[C@H](Cc1c[nH]c2ccccc12)NC(=O)[C@@H]1CCCN1C(=O)CN)C(=O)O,3,90.0,–
CC[C@H](C)[C@H](NC(=O)[C@@H](NC(=O)[C@H](Cc1ccccc1)NC(=O)CNC(=O)[C@@H]1CCCN1C(=O)[C@@H](N)Cc1c[nH]cn1)[C@@H](C)O)C(=O)N[C@@H](CC(C)C)C(=O)N[C@@H](C)C(=O)N[C@@H](CC(C)C)C(=O)N[C@@H](Cc1ccccc1)C(=O)O,9,3763.3,–
CC[C@H](C)[C@H](N)C(=O)N[C@@H](C)C(=O)N[C@@H](CC(N)=O)C(=O)N[C@@H](CCC(N)=O)C(=O)N[C@@H](C)C(=O)N[C@H](C(=O)N[C@H](C(=O)N[C@@H](CC(C)C)C(=O)N[C@@H](CCSC)C(=O)O)C(C)C)[C@@H](C)O,7,1518.3,–
CC[C@H](C)[C@H](N)C(=O)N[C@@H](C)C(=O)N[C@H](C(=O)N[C@@H](CO)C(=O)N[C@@H](CCSC)C(=O)N[C@@H](C)C(=O)N[C@@H](CC(N)=O)C(=O)N[C@H](C(=O)N[C@@H](Cc1ccccc1)C(=O)O)[C@@H](C)CC)C(C)C,6,1966.7,–
CC[C@H](C)[C@H](N)C(=O)N[C@@H](C)C(=O)N[C@H](C(=O)N[C@@H](CO)C(=O)N[C@H](C(=O)N[C@@H](C)C(=O)N[C@@H](CC(N)=O)C(=O)N[C@H](C(=O)N[C@@H](Cc1ccccc1)C(=O)O)[C@@H](C)CC)[C@@H](C)O)C(C)C,2,415.0,–
CC[C@H](C)[C@H](N)C(=O)NCC(=O)N[C@H](C(=O)NCC(=O)N[C@H](C(=O)N[C@@H](CC(C)C)C(=O)N[C@@H](CC(C)C)C(=O)N[C@H](C(=O)N[C@@H](Cc1c[nH]c2ccccc12)C(=O)O)[C@@H](C)O)[C@@H](C)CC)[C@@H](C)CC,1,525.0,–
CC[C@H](C)[C@H](N)C(=O)N[C@H](C(=O)N[C@@H](CC(C)C)C(=O)N[C@@H](CCC(=O)O)C(=O)N[C@@H](Cc1ccccc1)C(=O)N[C@@H](Cc1ccccc1)C(=O)N[C@@H](CC(C)C)C(=O)N[C@@H](CCSC)C(=O)N[C@H](C(=O)O)C(C)C)[C@@H](C)CC,1,143.3,–
CC[C@H](C)[C@H](N)C(=O)N1CCC[C@H]1C(=O)N[C@@H](Cc1ccccc1)C(=O)N[C@@H](CCC(=O)O)C(=O)N[C@H](C(=O)N[C@@H](CCSC)C(=O)N[C@@H](CC(=O)O)C(=O)N[C@@H](CC(C)C)C(=O)N[C@@H](CCC(=O)O)C(=O)N[C@@H](CCCCN)C(=O)O)[C@@H](C)CC,5,1500.0,–
CC[C@H](C)[C@H](N)C(=O)N1CCC[C@H]1C(=O)N[C@@H](CCSC)C(=O)N[C@@H](C)C(=O)N[C@H](C(=O)N[C@@H](Cc1ccc(O)cc1)C(=O)NCC(=O)N[C@@H](Cc1c[nH]c2ccccc12)C(=O)N[C@@H](CC(N)=O)C(=O)N[C@@H](CC(C)C)C(=O)O)[C@@H](C)O,2,456.7,–
CC[C@H](C)[C@H](N)C(=O)N1CCC[C@H]1C(=O)N[C@@H](CCSC)C(=O)N[C@@H](CO)C(=O)N[C@H](C(=O)N[C@@H](Cc1ccc(O)cc1)C(=O)NCC(=O)N[C@@H](Cc1c[nH]c2ccccc12)C(=O)N[C@@H](CC(N)=O)C(=O)N[C@@H](CC(C)C)C(=O)O)[C@@H](C)O,3,320.0,–
CC[C@H](C)[C@H](NC(=O)[C@H](C)NC(=O)[C@H](C)NC(=O)[C@H](CCSC)NC(=O)[C@@H](NC(=O)[C@@H](N)[C@@H](C)O)[C@@H](C)CC)C(=O)N[C@@H](CC(C)C)C(=O)N[C@@H](C)C(=O)N[C@@H](Cc1ccc(O)cc1)C(=O)O,1,20.0,–
CC[C@H](C)[C@H](NC(=O)[C@@H](NC(=O)[C@H](CC(=O)O)NC(=O)[C@H](CCSC)NC(=O)[C@@H](NC(=O)[C@H](C)NC(=O)CNC(=O)[C@H](CCCCN)NC(=O)[C@@H]1CCCN1C(=O)[C@@H](N)[C@@H](C)O)C(C)C)[C@@H](C)CC)C(=O)O,–,–,# donors responded [3]: 1; Total Response per epitope [4]: 105.0
CC(C)C[C@H](NC(=O)[C@H](CCC(N)=O)NC(=O)[C@H](CC(N)=O)NC(=O)[C@H](CC(=O)O)NC(=O)[C@H](CCC(N)=O)NC(=O)[C@@H]1CCCN1C(=O)[C@@H](N)[C@@H](C)O)C(=O)N[C@H](C(=O)N[C@@H](Cc1ccc(O)cc1)C(=O)O)[C@@H](C)O,–,–,# donors responded [3]: 1; Total Response per epitope [4]: 75.0
CC[C@H](C)[C@H](NC(=O)[C@@H](NC(=O)[C@H](CC(=O)O)NC(=O)[C@H](CCSC)NC(=O)[C@@H](NC(=O)[C@@H](NC(=O)CNC(=O)[C@H](CCCNC(=N)N)NC(=O)[C@@H]1CCCN1C(=O)[C@@H](N)[C@@H](C)O)[C@@H](C)O)C(C)C)[C@@H](C)CC)C(=O)O,–,–,# donors responded [3]: 1; Total Response per epitope [4]: 331.7
CC[C@H](C)[C@H](NC(=O)[C@H](C)NC(=O)[C@H](Cc1ccc(O)cc1)NC(=O)[C@H](Cc1c[nH]cn1)NC(=O)[C@@H](NC(=O)[C@@H](NC(=O)[C@H](CC(C)C)NC(=O)[C@H](CC(C)C)NC(=O)[C@H](CC(C)C)NC(=O)[C@@H](N)C(C)C)C(C)C)[C@@H](C)O)C(=O)O,–,–,# donors responded [3]: 1; Total Response per epitope [4]: 40.0
CSCC[C@H](NC(=O)[C@H](CC(N)=O)NC(=O)[C@@H](NC(=O)[C@H](CO)NC(=O)[C@H](CO)NC(=O)[C@@H](N)C(C)C)C(C)C)C(=O)N[C@H](C(=O)N[C@@H](CO)C(=O)N[C@@H](CCCNC(=N)N)C(=O)N[C@@H](CC(C)C)C(=O)O)C(C)C,–,–,# donors responded [3]: 1; Total Response per epitope [4]: 421.7
CC(C)C[C@H](NC(=O)[C@H](CCCNC(=N)N)NC(=O)[C@H](Cc1c[nH]cn1)NC(=O)[C@H](CC(=O)O)NC(=O)[C@H](CS)NC(=O)[C@H](CC(C)C)NC(=O)[C@H](CCC(N)=O)NC(=O)[C@@H](NC(=O)[C@H](Cc1ccc(O)cc1)NC(=O)[C@@H](N)C(C)C)[C@@H](C)O)C(=O)O,–,–,# donors responded [3]: 1; Total Response per epitope [4]: 21.7
C[C@H](NC(=O)[C@@H](N)Cc1c[nH]c2ccccc12)C(=O)N[C@@H](Cc1ccc(O)cc1)C(=O)N[C@@H](Cc1c[nH]cn1)C(=O)NCC(=O)N[C@@H](CO)C(=O)N[C@@H](Cc1ccc(O)cc1)C(=O)N[C@@H](CCC(=O)O)C(=O)N[C@H](C(=O)O)[C@@H](C)O,–,–,# donors responded [3]: 3; Total Response per epitope [4]: 1220.0
CC(C)C[C@H](NC(=O)CNC(=O)[C@H](C)NC(=O)CNC(=O)[C@H](C)NC(=O)[C@H](CC(C)C)NC(=O)[C@@H](N)Cc1ccc(O)cc1)C(=O)N[C@@H](C)C(=O)N[C@@H](Cc1ccccc1)C(=O)O,–,–,# donors responded [3]: 3; Total Response per epitope [4]: 340.0
